“Also recorded” adds a separate entry of the source.
Assays:
[1] = tested on: Human polymorphonuclear leukocytes; test: Phagocytosis: radioiodination of zymosan particles (125I uptake); format: cell-based
Method: Data are expressed as percentage of ^125 I incorporation into glass
fiber-filterable material. Assays were carried out using 1 ×

[2] = tested on: polymorphonuclear leukocytes (PMN); test: Superoxide anion generation in PMN; format: cell-based, human; details: fMLP (100 nM) or zymosan (400 μg/ml); up to 10 μM
RBL2H3 cells = test: Mast cell degranulation: [3H]-5HT release; format: cell-based; details: for DNP-OA-stimulated release of [3H]-5HT: ovalbumin (DNP-OA), 10 μM
Method: RBL2H3 cells were cultured in RPMI 1640 containing 10% FCS and were passaged into 24 well plates for experiments. The cells were sensitised by a 48 hour incubation with 50% (V/V) conditioned medium from a lymphoid cell line secreting anti-DNP ovalbumin antibody. During the last 24 hours of this incubation [^3 H]-5HT (1 μCi/ml) was added to each of the wells to label granular amine stores. At the end of the incubation period, the medium was aspirated, the cells were washed twice in RPMI 1640 and incubated in RPMI 1640 (0.25% BSA) in the absence or presence of 2-methyoxyoestradiol for 15 mins prior to stimulation with DNP-treated ovalbumin, A23187 or PMA for 30 mins at which time the supernatants were harvested, subjected to centrifugation (1000×g, 4° C., 5 min) and aliquots taken for determination of the amount of [^3 H]-5HT released. All experiments were carried out in quadruplicate.

[3] = tested on: human cultured airway smooth muscle cells; test: DNA synthesis: [3H]-thymidine incorporation; format: cell-based
Method: Human bronchial airway smooth muscle was obtained from macroscopically normal lung resection specimens from lung transplant donors or recipients provided by the Alfred Hospital (Melbourne). Cultures were prepared as previously described in detail (Tomlinson et al., 1994). Briefly, the tissue was partially digested in Dulbecco's Modified Eagle's Medium (DMEM), [supplemented with 2 mM L-glutamine, 100 μg/ml streptomycin, 100 U/ml penicillin-G, 2 μg/ml amphotericin B, and 0.25% w/v bovine serum albumin (BSA)] containing 3 mg/ml collagenase for 30 minutes at 37° C. and approximately 0.5 g smooth muscle was further digested by a 2 hour incubation in 0.5 mg/ml elastase, followed by an 18 hour incubation in collagenase (3 mg/ml) at 37° C. Cell suspensions ere centrifuged (10 min, 100×g, 25° C.), washed three times in supplemented DMEM, resuspended in 25 ml DMEM containing 10% (v/v) heat-inactivated foetal calf serum (FCS), seeded into 25 cm^2 Falcon culture flasks and incubated (37° C., 5% CO2) for 7 to 10 days until monolayer confluence was reached. Cells were then harvested weekly by 10 min exposure to 0.5% trypsin, 1 mM EDTA and passaged at a 1:3 split ratio into 75 cm^2 Falcon culture flaskes. Cells at passage numbers 3 to 15 were used for experiments.
Cells were subcultured into 24-well plates at a 1:3 ratio and allowed to grow to monolayer confluency over a 72-96 hour period in an atmosphere of 5% CO2 in air at 37° C. The serum-containing medium was replaced with serum-free DMEM for a 24 hour period to produce growth arrest. In some experiments, the cells were pretreated with 2-methoxyestradiol 30 min before the addition of mitogen. The stimulant (mitogen) was added to the appropriate wells together with a supplement containing insulin, transferrin, and selenium (Monomed A, 1% v/v). Monomed A was added to provide progression factors which are essential for the mitogenic activity of growth factors such as thrombin, epidermal growth factor (EGF) and basic fibroblast growth factor (bFGF) (Stewart et al., 1995a). Mitogens and inhibitors were left in contact with cells from the time of addition until the end of the experiment, unless indicated otherwise. Cells were incubated for 24 hours (37° C., 5% CO2) before being pulsed with [^3 H]-thymidine (1 μCi/ml for four hours) to measure incorporation of radiolabel into newly synthesized DNA, according to out previous study (Stewart et al., 1995). Incorporation of radioactivity was determined by filtration at the end of the pulse-labelling period. The medium containing the radioactivity was aspirated and the cells were lysed by addition of 200 μl of 0.1M NaOH. The DNA was immobilised by filtration in a binding harvester (Packard Filtermate 196) on glass fibre filters (Packard, standard), which were then washed with 3×3 ml volumes of distilled water and a single 1 ml volume of 100% ethanol. The dried filters were counted in a Packard Topcount liquid scintillation counter. Protein synthesis rates were determined in experiments of analogous design to those described above, but [^3 H]-leucine replaced [^3 H]-thymidine in the pulsing incubation of 4 hours. Furthermore, in experiments to determine the effects of mitogens and 2-methoxyestradiol on the rate of protein synthesis, incubations with mitogen were carried out for a period of 48 hours. The longer duration of these experiments was required to allow sufficient time for cell division to occur.
Each treatment in an individual experiment was carried out in quadruplicate for DNA and protein synthesis experiments. Each experiment was performed in at least three different cultures obtained from three different individuals. For cell counting, single incubations were carried out in three cultures. Results are presented as grouped data from multiple cultures and are expressed as mean ±S. E. of n cultures. The degree of increment was calculated by dividing the response of treated wells by that of the control wells on the same 24-well plate.

[4] = tested on: human cultured airway smooth muscle cells; test: Protein synthesis: [3H]-leucine incorporation; format: cell-based; details: for activity at 0.3 µM / activity at 1 µM / activity at 3 µM / activity at 10 µM: mean ± SEM
[5] = tested on: cultured smooth muscle cells from rabbit aorta; details: Nishigaki et al., 1995; cited from earlier work
oestrogen receptors = details: Merriam et al, 1980; cited from earlier work
[6] = 3 μM, thrombin, additional time points
[7] = Homo sapiens, 5HT (10 nM)-stimulated cells
[8] = Homo sapiens, unstimulated cells

Question: With COc1cc2c(cc1O)CC[C@@H]1[C@@H]2CC[C@]2(C)[C@@H](O)CC[C@@H]12 [2-methoxyestradiol, 1,3,5[10]-estratriene-2,3,17-triol 2-methylether] as the molecule, how does the 125I uptake ([1]; 3 μM, PHS (pooled human serum), control (basal 2.13)) read?
Answer: Its 125I uptake is 1.87 percentage of ^125 I incorpora.

Question: And the 125I uptake ([1]; 3 μM, PHS, zymosan (basal 4.33))?
Answer: The 125I uptake was 3.27 percentage of ^125 I incorpora.

Question: And the 125I uptake ([1]; 3 μM, no PHS, control (basal 1.80))?
Answer: The 125I uptake was 1.97 percentage of ^125 I incorpora.

Question: And the 125I uptake ([1]; 3 μM, no PHS, zymosan (basal 2.83))?
Answer: Its 125I uptake is 1.97 percentage of ^125 I incorpora.

Question: And the 125I uptake ([1]; 10 μM, PHS, control (basal 2.13))?
Answer: Its 125I uptake is 1.75 percentage of ^125 I incorpora.

Question: And the 125I uptake ([1]; 10 μM, PHS, zymosan (basal 4.33))?
Answer: Its 125I uptake is 1.65 percentage of ^125 I incorpora.

Question: And the 125I uptake ([1]; 10 μM, no PHS, control (basal 1.80))?
Answer: The 125I uptake was 2.05 percentage of ^125 I incorpora.

Question: What about the 125I uptake ([1]; 10 μM, no PHS, zymosan (basal 2.83)) of the same molecule?
Answer: The 125I uptake was 1.80 percentage of ^125 I incorpora.

Question: And the “radioiodination of zymosan particles by PMN (phagocytosis)” value ([1]; 3 and 10 μM)?
Answer: Its value is “significant effects being observed at both 3 and 10 μM”.

Question: And the “phagocytic activity of polymorphonuclear leukocytes” value ([1]; human peripheral blood)?
Answer: The value was “reduction of phagocytic activity”.

Question: What about the “superoxide anion generation in PMN” value [2] of the same molecule?
Answer: Its value is “not reduced”.

Question: What about the “release of [3H]-5HT, basal or PMA or A23187” value (RBL2H3 cells; basal, PMA (100 nM), A23187 (10 μM)) of the same molecule?
Answer: Its value is “unaffected; also recorded: did not affect release in response to PMA”.

Question: What about the “DNP-OA-stimulated release of [3H]-5HT” value (RBL2H3 cells) of the same molecule?
Answer: The value was “reduced”.

Question: What about the “DNP-OA-stimulated release of [3H]-5HT” value (RBL2H3 cells; listed as 2-methoxyoestradiol) of the same molecule?
Answer: Its value is “inhibits degranulation”.

Question: And the “DNA synthesis, addition at 18 hours or later after thrombin” value ([3]; 3 μM, thrombin 0.3 U/ml)?
Answer: Its value is “no effect”.

Question: And the “time of addition after thrombin giving maximum inhibition” value ([3]; 3 μM, thrombin 0.3 U/ml, first time-course)?
Answer: The value was 2 h.

Question: What about the “thrombin-stimulated DNA synthesis, addition up to 4 h after thrombin” value ([3]; 3 μM, thrombin 0.3 U/ml, time-course) of the same molecule?
Answer: The value was “inhibited”.

Question: And the “persistence of significant inhibition after thrombin addition” value [3, 6]?
Answer: Its value is “up to 6 hours”.

Question: What about the “time of addition giving the highest level of activity” value [3, 6] of the same molecule?
Answer: Its value is “either simultaneously or 1 hour after thrombin”.

Question: What about the “relative potency among analogues examined” value ([3]; DNA synthesis) of the same molecule?
Answer: The value was “most potent of the analogues examined”.

Question: What about the “DNA synthesis in the presence of EGF or 10% FCS” value ([3]; EGF 3 nM or 10% FCS, relative to thrombin, bFGF, lower FCS) of the same molecule?
Answer: Its value is “inhibited to a significantly lesser extent”.

Question: What about the “FCS (1%)-stimulated DNA synthesis, 10 μM” value ([3]; FCS 1%, 10 μM) of the same molecule?
Answer: The value was “inhibition was observed at 10 μM; also recorded: equivalent to 2-methoxyestradiol (10 μM)”.

Question: What about the “FCS (1%)-stimulated DNA synthesis, lower concentrations” value ([3]; FCS 1%, lower concentrations) of the same molecule?
Answer: The value was “enhanced”.

Question: And the “inhibition with FCS (10%)” value ([3]; FCS 10%)?
Answer: The value was “significantly less inhibited”.

Question: What about the inhibition at 3 µM ([3]; Homo sapiens, 3 μM, thrombin 0.3 U/ml, read-out: inhibition of DNA synthesis, addition between 4 and 14 hours after thrombin) of the same molecule?
Answer: Its inhibition at 3 µM is roughly 20%.

Question: What about the activity at 10 µM ([3]; Homo sapiens, thrombin 0.3 U/ml, 10 μM, read-out: response to thrombin ([3H]-thymidine), remaining) of the same molecule?
Answer: The activity at 10 µM was roughly 10%.

Question: What about the “concentration-response of enhancement of thrombin-stimulated DNA synthesis” value ([3]; thrombin) of the same molecule?
Answer: The value was “bell-shaped concentration-response curve”.

Question: What about the “enhancement of thrombin-stimulated DNA synthesis, 10 μM” value ([3]; thrombin 0.3 U/ml, 10 μM) of the same molecule?
Answer: Its value is “level of enhancement declined at 10 μM”.

Question: And the “thrombin-stimulated incorporation of [3H]-thymidine” value ([3]; thrombin 0.3 U/ml, 0.3-10 μM, 30 min pretreatment)?
Answer: The value was “concentration-dependentreduction”.

Question: And the “thrombin-stimulated DNA synthesis (analogues)” value ([3]; thrombin 0.3 U/ml, up to 3 μM)?
Answer: Its value is “enhanced thrombin-stimulated DNA synthesis”.

Question: And the “[3H]-leucine incorporation at 10 μM” value ([4]; 10 μM, thrombin or bFGF)?
Answer: Its value is “no significant inhibitory effect”.

Question: What about the activity at 0.3 µM [4, 7] of the same molecule?
Answer: The activity at 0.3 µM was 91 ± 5%.

Question: And the activity at 1 µM [4, 7]?
Answer: Its activity at 1 µM is 62 ± 2%.

Question: And the activity at 3 µM [4, 7]?
Answer: The activity at 3 µM was 56 ± 2%.

Question: And the activity at 10 µM [4, 7]?
Answer: Its activity at 10 µM is 51 ± 6%.

Question: What about the activity at 0.3 µM [4, 8] of the same molecule?
Answer: The activity at 0.3 µM was 135 ± 3%.

Question: What about the activity at 1 µM [4, 8] of the same molecule?
Answer: Its activity at 1 µM is 84 ± 4%.

Question: And the activity at 3 µM [4, 8]?
Answer: The activity at 3 µM was 77 ± 3%.

Question: What about the activity at 10 µM [4, 8] of the same molecule?
Answer: The activity at 10 µM was 113 ± 9%.

Question: And the inhibition at 3 µM ([4]; Homo sapiens, at 3 μM, thrombin, FCS 1% or bFGF, read-out: maximum percentage reduction of [3H]-leucine incorporation)?
Answer: Its inhibition at 3 µM is roughly 30%.

Question: What about the minimal effective concentration ([4]; Homo sapiens, thrombin (0.3 U/ml), FCS (1% v/v) or bFGF (300 pM), 48 h, read-out: threshold concentration for inhibition of [3H]-leucine incorporation) of the same molecule?
Answer: The minimal effective concentration was 1 µM.

Question: And the “[3H]-leucine incorporation, compound alone, 10 μM” value ([4]; unstimulated, 10 μM)?
Answer: The value was “no effect”.

Question: What about the “[3H]-leucine incorporation, compound alone, 1 and 3 μM” value ([4]; unstimulated, 1 and 3 μM) of the same molecule?
Answer: Its value is “small inhibitory effects”.

Question: What about the “proliferation of rabbit aorta smooth muscle cells” value [5] of the same molecule?
Answer: The value was “anti-proliferative effects”.

Question: What about the “affinity for oestrogen receptors” value (oestrogen receptors) of the same molecule?
Answer: Its value is “not to have significant affinity”.
